The values that follow are results of earlier work, collected in patent US20220347170A1, “Method of Reducing Brow Ache” (priority 2021, published 2022).

The structures appear in SMILES notation.

For this series the following is noted: aceclidine alone; U.S. Pat. Nos. 9,089,562, 9,833,441 and 9,314,427.

On to `CC(=O)OC1CN2CCC1CC2` (stereo not shown) [aceclidine], for which the brow ache entry is recorded as “significant brow ache”.
